{"source": "patent US20250352550A1", "about": "“SUBSTITUTED FUROPYRIDINES FOR THERAPEUTIC USE” (MASARYKOVA UNIVERZITA, priority 2022, published 2025)", "data": [{"target": "T1, FLT3 (Homo sapiens, UniProt P36888)", "T1 construct": "purchased Reaction Biology", "T1 sequence (P36888 27-993)": "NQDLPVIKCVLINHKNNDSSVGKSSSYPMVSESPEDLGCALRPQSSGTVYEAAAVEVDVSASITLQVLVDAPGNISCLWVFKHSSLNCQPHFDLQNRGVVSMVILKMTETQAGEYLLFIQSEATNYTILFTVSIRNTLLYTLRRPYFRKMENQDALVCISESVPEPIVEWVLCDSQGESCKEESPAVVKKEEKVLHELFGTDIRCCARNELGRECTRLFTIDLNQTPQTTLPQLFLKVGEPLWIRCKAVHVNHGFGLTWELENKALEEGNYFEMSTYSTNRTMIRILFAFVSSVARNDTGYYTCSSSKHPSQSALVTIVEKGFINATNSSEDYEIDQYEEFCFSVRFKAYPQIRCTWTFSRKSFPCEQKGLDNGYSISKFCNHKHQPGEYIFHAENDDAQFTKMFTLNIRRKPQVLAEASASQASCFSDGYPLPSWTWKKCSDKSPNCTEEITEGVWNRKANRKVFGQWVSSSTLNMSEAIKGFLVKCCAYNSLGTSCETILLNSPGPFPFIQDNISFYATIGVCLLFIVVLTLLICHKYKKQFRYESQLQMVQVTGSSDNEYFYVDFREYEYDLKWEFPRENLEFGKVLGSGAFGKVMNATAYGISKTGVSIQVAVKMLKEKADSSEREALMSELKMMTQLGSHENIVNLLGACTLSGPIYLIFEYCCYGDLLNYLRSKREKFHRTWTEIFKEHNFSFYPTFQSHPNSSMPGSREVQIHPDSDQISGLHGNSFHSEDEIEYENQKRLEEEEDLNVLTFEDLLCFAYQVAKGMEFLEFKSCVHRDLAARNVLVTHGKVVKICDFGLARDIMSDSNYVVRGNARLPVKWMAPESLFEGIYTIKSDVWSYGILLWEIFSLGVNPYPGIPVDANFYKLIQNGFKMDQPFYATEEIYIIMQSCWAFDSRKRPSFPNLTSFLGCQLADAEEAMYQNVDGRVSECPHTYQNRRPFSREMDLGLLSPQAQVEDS", "test": "HotSpot radiometric kinase assay (Reaction Biology), FLT3", "type": "biochemical", "conditions": "4 nM kinase, substrate ABLtide 20 μM, 33P-ATP, 120 minutes at room temperature", "procedure": "(§1) The compounds were profiled in the HotSpot radiometric assays (Reaction Biology).\n(§2) Briefly, • 1. Substrate indicated in Table 1 was dissolved in freshly prepared reaction buffer (20 mM HEPES (pH 7.5), 10 mM MgCl2, 1 mM EGTA, 0.01% Brij35, 0.02 mg/ml BSA, 0.1 mM Na3VO4, 2 mM DTT, 1% DMSO) at the concentration indicated in Table 1. • 2. Corresponding kinase (concentration indicated in Table 1) was added and the mixture was gently mixed. • 3. Tested compound dissolved in DMSO was added into the kinase reaction mixture. • 4. ^33P-ATP (specific activity 0.01 μCi/μL final) was added into the reaction mixture to initiate the reaction. • 5. The kinase reaction was incubated for 120 minutes at room temperature. • 6. Reaction mixture was spotted onto P81 ion exchange paper (Whatman K 3698-915). • 7. The filters were extensively washed with 0.754 phosphoric acid. • 7. The radioactive phosphorylated substrate remaining on the filter paper was measured.\n(§3) Kinase activity data were expressed as the percent remaining kinase activity in tested samples compared to the vehicle (DMSO) reactions. IC50 values and curve fits were obtained using Prism4 Software (GraphPad).\nTable 2 summarizes the inhibitory activities of indicated compounds tested in the in vitro kinase assays described above.", "units": {"IC50": "µM"}, "values": [{"smiles": "NC(=O)Nc1cccc(-c2coc3cc(-c4ccccc4)cnc23)c1", "note": "[1-(3-(6-phenylfuro[3,2-b]pyridin-3-yl)phenyl)urea]", "IC50": 0.046}, {"smiles": "Cc1cc(-c2coc3cc(-c4ccc(N5CCNCC5)cc4)cnc23)cc(C)n1", "note": "[Preparative Example 8, 3-(2,6-dimethylpyridin-4-yl)-6-(4-(piperazin-1-yl)phenyl)furo[3,2-b]pyridine]", "IC50": 0.279}, {"smiles": "c1cncc(-c2coc3cc(-c4ccc(N5CCNCC5)cc4)cnc23)c1", "note": "[Preparative Example 11, 6-(4-(piperazin-1-yl)phenyl)-3-(pyridin-3-yl)furo[3,2-b]pyridine]", "IC50": 0.025}, {"smiles": "COc1ccccc1-c1coc2cc(-c3ccc(N4CCNCC4)cc3)cnc12", "note": "[Preparative Example 17, 3-(2-methoxyphenyl)-6-(4-(piperazin-1-yl)phenyl)furo[3,2-b]pyridine]", "IC50": 0.226}, {"smiles": "N#Cc1cccc(-c2coc3cc(-c4ccc(N5CCNCC5)cc4)cnc23)c1", "note": "[Preparative Example 20, 3-(6-(4-(piperazin-1-yl)phenyl)furo[3,2-b]pyridin-3-yl)benzonitrile]", "IC50": 0.09}, {"smiles": "c1ccc(-c2cnc3c(-c4ccncc4)coc3c2)cc1", "note": "[Preparative Example 22, 6-phenyl-3-(pyridin-4-yl)furo[3,2-b]pyridine]", "IC50": 0.183}, {"smiles": "c1cc(-c2coc3cc(-c4ccc(N5CCOCC5)nc4)cnc23)ccn1", "note": "[Preparative Example 23, 6-(6-morpholinopyridin-3-yl)-3-(pyridin-4-yl)furo[3,2-b]pyridine]", "IC50": 0.099}, {"smiles": "c1cc(-c2coc3cc(-c4ccc(N5CCNCC5)nc4)cnc23)ccn1", "note": "[Preparative Example 25, 6-(6-(piperazin-1-yl)pyridin-3-yl)-3-(pyridin-4-yl)furo[3,2-b]pyridine]", "IC50": 0.049}, {"smiles": "Nc1ccc(-c2cnc3c(-c4ccncc4)coc3c2)cc1", "note": "[Preparative Example 47, 4-(3-(pyridin-4-yl)furo[3,2-b]pyridin-6-yl)aniline]", "IC50": 0.09}, {"smiles": "c1cc(-c2coc3cc(-c4ccc(N5CCCCC5)nc4)cnc23)ccn1", "note": "[Preparative Example 48, 6-(6-(piperidin-1-yl)pyridin-3-yl)-3-(pyridin-4-yl)furo[3,2-b]pyridine]", "IC50": 0.136}, {"smiles": "CC(C)c1ccc(-c2coc3cc(-c4ccc(N5CCNCC5)cc4)cnc23)cc1", "note": "[Preparative Example 67, 3-(4-isopropylphenyl)-6-(4-(piperazin-1-yl)phenyl)furo[3,2-b]pyridine]", "IC50": 0.608}, {"smiles": "Cc1nc2c(-c3ccncc3)coc2cc1-c1ccc(N2CCN(C)CC2)cc1", "note": "[Preparative Example 80, 5-methyl-6-(4-(4-methylpiperazin-1-yl)phenyl)-3-(pyridin-4-yl)furo[3,2-b]pyridine]", "IC50": 0.137}, {"smiles": "c1ccc(Nc2cnc3c(-c4ccncc4)coc3c2)cc1", "note": "[Preparative Example 84, N-phenyl-3-(pyridin-4-yl)furo[3,2-b]pyridin-6-amine]", "IC50": 0.139}, {"smiles": "CN(C)CCN(C)c1ccc(Nc2cnc3c(-c4ccncc4)coc3c2)cc1", "note": "[Preparative Example 98, N^1-(2-(dimethylamino)ethyl)-N^1-methyl-N^4-(3-(pyridin-4-yl)furo[3,2-b]pyridin-6-yl)benzene-1,4-diamine]", "IC50": 0.122}, {"smiles": "Cc1ccc(NC(=O)c2cccc(-c3coc4cc(-c5ccc(N6CCNCC6)cc5)cnc34)c2)cc1", "note": "[Preparative Example 119, 3-(6-(4-(piperazin-1-yl)phenyl)furo[3,2-b]pyridin-3-yl)-N-(p-tolyl)benzamide]", "IC50": 0.79}, {"smiles": "O=S(=O)(NCc1ccccc1)c1cccc(-c2coc3cc(-c4ccc(N5CCNCC5)cc4)cnc23)c1", "note": "[Preparative Example 122, N-benzyl-3-(6-(4-(piperazin-1-yl)phenyl)furo[3,2-b]pyridin-3-yl)benzenesulfonamide]", "IC50": 0.138}, {"smiles": "c1ncc(-c2coc3cc(-c4ccc(N5CCNCC5)cc4)cnc23)cn1", "note": "[Preparative Example 206, 5-{6-[4-(piperazin-1-yl)phenyl]furo[3,2-b]pyridin-3-yl}pyrimidine]", "IC50": 0.203}, {"smiles": "CN1CCN(c2ccc(-c3cnc4c(-c5cccc(C(N)=O)c5F)coc4c3)cc2)CC1", "note": "[Preparative Example 214, 2-fluoro-3-(6-(4-(4-methylpiperazin-1-yl)phenyl)furo[3,2-b]pyridin-3-yl)benzamide]", "IC50": 0.496}, {"smiles": "CN1CCN(c2ccc(-c3cnc4c(-c5ccc(CC(N)=O)cc5)coc4c3)cc2)CC1", "note": "[Preparative Example 236, 2-(4-(6-(4-(4-methylpiperazin-1-yl)phenyl)furo[3,2-b]pyridin-3-yl)phenyl)acetamide]", "IC50": 0.054}, {"smiles": "CN1CCN(c2ccc(-c3cnc4c(-c5ccc(NC(N)=O)cc5)coc4c3)cc2)CC1", "note": "[Preparative Example 251, (4-{6-[4-(4-methylpiperazin-1-yl)phenyl]furo[3,2-b]pyridin-3-yl}phenyl)urea]", "IC50": 0.113}, {"smiles": "c1ccc(-c2coc3ccc(Nc4ccc(N5CCOCC5)cc4)nc23)cc1", "note": "[compound 8B from WO 2015/165428, reference compound]", "IC50": 1.95}, {"smiles": "CN1CCN(c2ccc(Nc3ccc4occ(-c5ccccc5)c4n3)cc2)CC1", "note": "[compound 8C from WO 2015/165428, reference compound]", "IC50": 1.03}, {"smiles": "c1ccc(-c2coc3ccc(Nc4ccncc4)nc23)cc1", "note": "[compound 8D from WO 2015/165428, reference compound]", "IC50": 1.24}, {"smiles": "c1ccc(Nc2ccc3occ(-c4ccccc4)c3n2)cc1", "note": "[compound 8E from WO 2015/165428, reference compound]", "IC50": 2.72}]}, {"target": "T2, DDR1 (Homo sapiens, UniProt Q08345)", "T2 construct": "purchased Reaction Biology", "T2 sequence (Q08345 19-913)": "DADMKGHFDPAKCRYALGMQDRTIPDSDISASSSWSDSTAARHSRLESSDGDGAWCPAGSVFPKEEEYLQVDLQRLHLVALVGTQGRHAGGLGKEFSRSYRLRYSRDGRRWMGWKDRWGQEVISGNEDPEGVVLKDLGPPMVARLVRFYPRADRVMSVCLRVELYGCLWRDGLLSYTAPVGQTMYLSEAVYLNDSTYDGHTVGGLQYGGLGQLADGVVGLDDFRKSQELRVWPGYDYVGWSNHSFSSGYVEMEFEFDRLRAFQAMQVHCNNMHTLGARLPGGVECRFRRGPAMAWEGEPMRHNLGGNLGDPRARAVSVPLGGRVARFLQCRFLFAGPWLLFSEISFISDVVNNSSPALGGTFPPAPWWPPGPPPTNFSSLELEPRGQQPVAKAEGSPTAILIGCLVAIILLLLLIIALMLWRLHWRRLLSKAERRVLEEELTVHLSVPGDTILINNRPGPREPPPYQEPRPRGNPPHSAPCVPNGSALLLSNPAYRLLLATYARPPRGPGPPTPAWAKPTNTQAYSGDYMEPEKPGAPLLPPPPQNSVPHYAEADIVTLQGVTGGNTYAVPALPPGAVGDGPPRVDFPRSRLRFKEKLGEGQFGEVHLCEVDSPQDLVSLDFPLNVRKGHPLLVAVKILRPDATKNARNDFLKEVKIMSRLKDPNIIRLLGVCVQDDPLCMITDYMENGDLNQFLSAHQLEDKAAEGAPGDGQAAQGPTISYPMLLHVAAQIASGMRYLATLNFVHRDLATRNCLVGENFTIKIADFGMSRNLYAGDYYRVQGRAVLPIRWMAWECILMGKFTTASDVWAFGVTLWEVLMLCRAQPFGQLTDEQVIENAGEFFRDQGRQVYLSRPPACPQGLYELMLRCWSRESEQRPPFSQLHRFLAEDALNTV", "test": "HotSpot radiometric kinase assay (Reaction Biology), DDR1", "type": "biochemical", "conditions": "200 nM kinase, substrate IRS1tide 20 μM, 33P-ATP, 120 minutes at room temperature", "procedure": "as §1\nas §2, with “Reaction mixture was spotted onto P81 ion exchange paper (Whatman K 3698-915). • 7. The filters were extensively washed with 0.754 phosphoric acid. • 7.” left out\nas §3", "units": {"IC50": "µM"}, "values": [{"smiles": "c1cncc(-c2coc3cc(-c4ccc(N5CCNCC5)cc4)cnc23)c1", "note": "[Preparative Example 11, 6-(4-(piperazin-1-yl)phenyl)-3-(pyridin-3-yl)furo[3,2-b]pyridine]", "IC50": 0.294}, {"smiles": "COc1ccccc1-c1coc2cc(-c3ccc(N4CCNCC4)cc3)cnc12", "note": "[Preparative Example 17, 3-(2-methoxyphenyl)-6-(4-(piperazin-1-yl)phenyl)furo[3,2-b]pyridine]", "IC50": 0.184}, {"smiles": "N#Cc1cccc(-c2coc3cc(-c4ccc(N5CCNCC5)cc4)cnc23)c1", "note": "[Preparative Example 20, 3-(6-(4-(piperazin-1-yl)phenyl)furo[3,2-b]pyridin-3-yl)benzonitrile]", "IC50": 0.16}, {"smiles": "c1cc(-c2coc3cc(-c4ccc(N5CCNCC5)nc4)cnc23)ccn1", "note": "[Preparative Example 25, 6-(6-(piperazin-1-yl)pyridin-3-yl)-3-(pyridin-4-yl)furo[3,2-b]pyridine]", "IC50": 0.791}, {"smiles": "CN1CCN(c2ccc(-c3cnc4c(-c5cccc(-c6ccccc6)c5)coc4c3)cc2)CC1", "note": "[Preparative Example 158, 3-([1,1′-biphenyl]-3-yl)-6-(4-(4-methylpiperazin-1-yl)phenyl)furo[3,2-b]pyridine]", "IC50": 0.184}, {"smiles": "C(#Cc1coc2cc(-c3ccc(N4CCNCC4)cc3)cnc12)c1ccccc1", "note": "[Preparative Example 191, 1-{4-[3-(2-phenylethynyl)furo[3,2-b]pyridin-6-yl]phenyl}piperazine]", "IC50": 0.329}, {"smiles": "CCCc1oc2cc(-c3ccc(N4CCN(C)CC4)cc3)cnc2c1-c1ccc(C(N)=O)cc1", "note": "[Preparative Example 243, 4-{6-[4-(4-methylpiperazin-1-yl)phenyl]-2-propylfuro[3,2-b]pyridin-3-yl}benzamide]", "IC50": 0.208}, {"smiles": "CCCc1oc2cc(-c3ccc(N4CCN(C)CC4)cc3)cnc2c1-c1cnn(C)c1", "note": "[Preparative Example 245, 1-methyl-4-{4-[3-(1-methyl-1H-pyrazol-4-yl)-2-propylfuro[3,2-b]pyridin-6-yl]phenyl}piperazine]", "IC50": 0.312}, {"smiles": "CN1CCN(c2ccc(-c3cnc4c(-c5ccccc5)c(-c5ccccc5)oc4c3)cc2)CC1", "note": "[Preparative Example 249, 1-(4-{2,3-diphenylfuro[3,2-b]pyridin-6-yl}phenyl)-4-methylpiperazine]", "IC50": 0.549}, {"smiles": "COc1ccc(-c2coc3cc(-c4ccc(N5CCN(C)CC5)cc4)cnc23)cn1", "note": "[Preparative Example 259, 3-(6-methoxypyridin-3-yl)-6-(4-(4-methylpiperazin-1-yl)phenyl)furo[3,2-b]pyridine]", "IC50": 0.261}]}]}
